Laboratory results reported in patent publication US11987807B2, “Isolated human lung progenitor cells and uses thereof” (THE GENERAL HOSPITAL CORPORATION, priority 2012, dated 2024).

Tested on: human iPSC and ESC lines
Assay: Definitive endoderm generation from human iPSC/ESC (FOXA2/SOX17 co-staining)
Type: cell-based
Conditions: screen of multiple PI3K inhibitors (LY-294002, ZSTK474, Wortmannin, PI828, NVP-BKM120, PIK-75)
Description: The endoderm is one of the three primary germ cell layers in the embryo. It forms the embryonic gut which in turn gives rise to the epithelia of the lungs and digestive organs. Therefore, the first essential step for directing human iPSC towards a lung lineage is to generate endoderm cells, preferably with high efficiency. […] For example, the current published protocol (Mou et al., 2012; RPMI+2% B27+100 ng/ml TGF-beta agonist Activin A+5 uM LY-294002 PI3K Inhibitor) is effective in several human iPSC and ESC lines with definitive endoderm efficiency higher than 90%. In some “difficult” or “resistant” cell lines, this same protocol generates definitive endoderm that varies between low efficiency (<30%) to medium efficiency (40-70%). […] Therefore, this protocol is much more cost-effective than prior protocols. […]
This protocol permits a remarkable 90% or greater, including 91%, 92%, 93%, 94%, 95%, 96%, 97%, and even as high as 98% or more, of human iPSC/ESC cells to be converted into definitive endoderm cell as determined by nuclear staining for the transcription factors Foxa2 and Sox17. […] Furthermore, this protocol can be universally applied to multiple cell lines including several “difficult” cell lines that were determined to have low efficiency of definitive endoderm generation. […]

`FC(F)c1nc2ccccc2n1-c1nc(N2CCOCC2)nc(N2CCOCC2)n1` [ZSTK474] was tested, and the “potency for definitive endoderm generation” value was “most potent”.
